{"source": "patent US20080188421A1", "about": "“Hunter-Killer Peptides and Methods of Use” (priority 2004, published 2008)", "key": {"mitochondrial membranes": {"test_system": "mitochondrial membranes", "conditions": "at a concentration of 10 μM; cited from earlier work"}, "Kaposi's sarcoma cells [1]": {"test_system": "Kaposi's sarcoma cells", "assay": "Viability of KS cells (Live/Dead assay)", "assay_type": "cell-based", "conditions": "KS cells treated with peptides at 12 ug/mL in DMEM without serum", "experimental": "(§1) KS cells were plated in DMEM with 10% FBS in 96-well plates. Media was replaced with 100 uL of DMEM without serum and cells were treated with peptides at 12 ug/mL: The peptides utilized had two distinct disulfide links and are shown below. The other peptides utilized in the studies and methods for tumor studies are essentially as reported in Nature Medicine 5(9): 1032-1038, 1999, which is incorporated herein by reference in its entirety. Crude peptide was unpurified peptide composed monomer and dimer and other species-oxidized forms of the peptide."}, "Kaposi's sarcoma cells [2]": {"test_system": "Kaposi's sarcoma cells", "assay": "Mitochondrial function in KS cells (WST-1 assay)", "assay_type": "cell-based", "conditions": "KS cells treated with peptides at 12 ug/mL; for mitochondrial function (remaining) in treated KS cell culture: function reduced to", "experimental": "as §1\nIn order to determine the decrease in mitochondrial function in tumor cells targeted with HK-1, which has the structure (CNGRC-GG-d(KLAKLAK)2)2 (SEQ ID NO: 9), Kaposi's sarcoma cells were treated with HK-1, with the corresponding monomeric homing conjugate CNGRC-GG-d(KLAKLAK)2 (SEQ ID NO: 20), with a crude preparation of the CNGRC homing peptide monomers, with an RGD peptide preparation, with a preparation including KLAKLAK (SEQ ID NO: 5) antimicrobial peptides, and with a CNGR control preparation."}}}
{"substance": "d(KLAKLAK)2", "values": [{"measurement": "mitochondrial swelling", "setting": "mitochondrial membranes", "result": "marked mitochondrial swelling"}]}
{"substance": "(CNGRC-GG-d(KLAKLAK)2)2 [HK-1]", "values": [{"measurement": "cell death", "setting": "Kaposi's sarcoma cells [1]", "result": "~50", "unit": "%"}, {"measurement": "reduction in mitochondrial function", "setting": "Kaposi's sarcoma cells [2]", "result": 63, "unit": "%"}, {"measurement": "mitochondrial function (remaining) in treated KS cell culture", "setting": "Kaposi's sarcoma cells [2]", "result": 37, "unit": "%"}]}
{"substance": "CNGRC-GG-d(KLAKLAK)2", "values": [{"measurement": "cell death", "setting": "Kaposi's sarcoma cells [1]", "result": "approximately 10%"}, {"measurement": "reduction in mitochondrial function", "setting": "Kaposi's sarcoma cells [2]", "result": 34, "unit": "%"}, {"measurement": "mitochondrial function (remaining) in treated KS cell culture", "setting": "Kaposi's sarcoma cells [2]", "result": "over 65%"}]}
